As a reminder, the IC50 is the concentration needed to halve the response being measured. Lower therefore signals greater potency. What is called Kd is the equilibrium constant for the complex coming apart. Low values mean tighter binding, high ones weaker binding.

One assay addresses GAK (human) (UniProt O14976). Kind of assay: KINOMEscan competition binding. The note with it: compound 10.0 µM.
The next assay has as its target MYLK (human) (UniProt Q15746). Put plainly: KINOMEscan competition binding. The settings on record: compound 10.0 µM.
For another assay, the target named is PLK1 (human) (UniProt P53350). Put plainly: KINOMEscan competition binding. The settings on record: compound 10.0 µM.
Sequence of PLK1 (human) (P53350 whole entry, looked up): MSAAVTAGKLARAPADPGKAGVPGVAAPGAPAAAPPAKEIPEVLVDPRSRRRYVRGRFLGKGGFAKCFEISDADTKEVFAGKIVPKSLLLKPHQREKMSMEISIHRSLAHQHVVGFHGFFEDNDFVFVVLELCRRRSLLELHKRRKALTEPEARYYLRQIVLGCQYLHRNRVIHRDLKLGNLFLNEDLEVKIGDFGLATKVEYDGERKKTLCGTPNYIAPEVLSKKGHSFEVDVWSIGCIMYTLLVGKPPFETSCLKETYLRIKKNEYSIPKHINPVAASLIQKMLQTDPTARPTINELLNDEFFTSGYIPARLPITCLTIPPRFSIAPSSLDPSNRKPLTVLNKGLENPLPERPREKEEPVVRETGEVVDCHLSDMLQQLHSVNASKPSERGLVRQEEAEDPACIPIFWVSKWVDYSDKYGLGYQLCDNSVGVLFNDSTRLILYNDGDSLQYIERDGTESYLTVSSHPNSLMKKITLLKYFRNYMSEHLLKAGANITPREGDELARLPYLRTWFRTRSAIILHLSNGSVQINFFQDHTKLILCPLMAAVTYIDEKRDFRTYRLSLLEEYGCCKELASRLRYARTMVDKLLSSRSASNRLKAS
A further assay concerns the target PLK3 (human) (UniProt Q9H4B4). Put plainly: KINOMEscan competition binding. The settings on record: compound 10.0 µM.
The target in the next assay is RAF1 (human) (UniProt P04049). Kind of assay: KINOMEscan competition binding. The settings on record: compound 10.0 µM.
Sequence of RAF1 (human) (P04049 whole entry, looked up): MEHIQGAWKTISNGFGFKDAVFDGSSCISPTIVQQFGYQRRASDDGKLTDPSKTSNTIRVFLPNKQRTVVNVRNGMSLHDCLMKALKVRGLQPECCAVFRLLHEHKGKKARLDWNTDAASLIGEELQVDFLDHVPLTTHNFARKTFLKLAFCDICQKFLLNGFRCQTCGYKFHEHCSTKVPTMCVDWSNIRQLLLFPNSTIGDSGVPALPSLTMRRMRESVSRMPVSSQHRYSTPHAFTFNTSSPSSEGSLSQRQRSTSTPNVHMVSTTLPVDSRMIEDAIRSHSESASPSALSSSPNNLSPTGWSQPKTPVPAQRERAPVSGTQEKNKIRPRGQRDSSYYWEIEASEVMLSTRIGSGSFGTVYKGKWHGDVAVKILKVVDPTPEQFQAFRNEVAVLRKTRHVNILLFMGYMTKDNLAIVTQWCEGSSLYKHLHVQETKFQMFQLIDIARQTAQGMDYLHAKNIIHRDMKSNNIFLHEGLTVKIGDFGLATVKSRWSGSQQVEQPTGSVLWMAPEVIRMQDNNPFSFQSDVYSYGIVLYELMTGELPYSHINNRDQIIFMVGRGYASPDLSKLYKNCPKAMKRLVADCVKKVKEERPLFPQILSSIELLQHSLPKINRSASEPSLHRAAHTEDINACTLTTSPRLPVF
The target of another assay is RPS6KA2 KD2 (human) (UniProt Q15349). Kind of assay: KINOMEscan competition binding. The settings on record: compound 10.0 µM.
A further assay concerns the target RPS6KA4 KD2 (human) (UniProt O75676). Put plainly: KINOMEscan competition binding. The settings on record: compound 10.0 µM.
Assay [1] deals with TTK (human) (UniProt P33981). Kind of assay: KINOMEscan competition binding. The settings on record: for kinase still bound, per cent of control: compound 10.0 µM.
Sequence of TTK (human) (P33981 whole entry, looked up): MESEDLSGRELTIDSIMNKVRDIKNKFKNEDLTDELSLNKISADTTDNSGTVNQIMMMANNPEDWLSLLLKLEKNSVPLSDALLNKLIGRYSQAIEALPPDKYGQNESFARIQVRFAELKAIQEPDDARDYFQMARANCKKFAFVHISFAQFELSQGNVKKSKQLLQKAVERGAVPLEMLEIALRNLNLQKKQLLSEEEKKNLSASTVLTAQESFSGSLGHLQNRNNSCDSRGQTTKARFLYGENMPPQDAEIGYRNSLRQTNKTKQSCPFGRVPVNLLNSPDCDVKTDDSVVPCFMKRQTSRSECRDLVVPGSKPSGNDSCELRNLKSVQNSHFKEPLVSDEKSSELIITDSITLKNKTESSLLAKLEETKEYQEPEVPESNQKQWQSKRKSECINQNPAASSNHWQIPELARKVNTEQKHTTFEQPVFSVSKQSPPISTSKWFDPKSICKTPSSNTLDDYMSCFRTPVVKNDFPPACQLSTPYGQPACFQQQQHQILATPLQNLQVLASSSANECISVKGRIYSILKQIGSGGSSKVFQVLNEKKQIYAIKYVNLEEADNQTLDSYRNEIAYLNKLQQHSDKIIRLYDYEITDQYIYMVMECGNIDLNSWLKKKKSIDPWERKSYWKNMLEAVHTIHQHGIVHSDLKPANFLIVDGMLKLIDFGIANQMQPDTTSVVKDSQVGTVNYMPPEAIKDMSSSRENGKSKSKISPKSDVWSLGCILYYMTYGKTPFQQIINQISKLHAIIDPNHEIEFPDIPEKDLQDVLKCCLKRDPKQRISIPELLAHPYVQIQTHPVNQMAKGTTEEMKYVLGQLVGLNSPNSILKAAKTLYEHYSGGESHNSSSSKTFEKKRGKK
The next assay has as its target AAK1 (human) (UniProt Q2M2I8). Put plainly: KINOMEscan competition binding. The note with it: compound 10.0 µM.
A further assay concerns the target BTK (human) (UniProt Q06187). Kind of assay: KINOMEscan competition binding. The settings on record: compound 10.0 µM.
The next assay addresses CDK16 (human) (UniProt Q00536). Kind of assay: KINOMEscan competition binding. The note with it: compound 10.0 µM.
The next assay concerns the target CDK7 (human) (UniProt P50613). Put plainly: KINOMEscan competition binding. The note with it: compound 10.0 µM.
The target in the next assay is CSNK2A1 (human) (UniProt P68400). Put plainly: KINOMEscan competition binding. The settings on record: compound 10.0 µM.
Sequence of CSNK2A1 (human) (P68400 whole entry, looked up): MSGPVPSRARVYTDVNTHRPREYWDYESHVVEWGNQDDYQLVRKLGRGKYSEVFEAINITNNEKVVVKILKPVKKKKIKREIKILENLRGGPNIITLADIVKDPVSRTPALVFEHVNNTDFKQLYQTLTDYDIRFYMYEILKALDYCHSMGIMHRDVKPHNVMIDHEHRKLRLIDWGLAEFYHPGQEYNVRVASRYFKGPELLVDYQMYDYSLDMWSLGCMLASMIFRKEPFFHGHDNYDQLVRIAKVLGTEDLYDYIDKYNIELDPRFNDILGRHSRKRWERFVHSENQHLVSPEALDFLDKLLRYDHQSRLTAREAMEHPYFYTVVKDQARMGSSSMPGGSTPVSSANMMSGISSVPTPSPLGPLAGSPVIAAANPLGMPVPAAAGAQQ
For another assay, the target named is CSNK2A2 (human) (UniProt P19784). Put plainly: KINOMEscan competition binding. The note with it: compound 10.0 µM.
The next assay addresses DAPK1 (human) (UniProt P53355). Kind of assay: KINOMEscan competition binding. The settings on record: compound 10.0 µM.
A further assay addresses DAPK2 (human) (UniProt Q9UIK4). Put plainly: KINOMEscan competition binding. The settings on record: compound 10.0 µM.
Another assay has as its target DAPK3 (human) (UniProt O43293). Put plainly: KINOMEscan competition binding. The settings on record: compound 10.0 µM.
For a further assay, the target named is HIPK1 (human) (UniProt Q86Z02). Put plainly: KINOMEscan competition binding. The note with it: compound 10.0 µM.
A further assay concerns the target LATS2 (human) (UniProt Q9NRM7). Put plainly: KINOMEscan competition binding. The note with it: compound 10.0 µM.
Another assay has as its target MAP2K3 (human) (UniProt P46734). Kind of assay: KINOMEscan competition binding. The settings on record: compound 10.0 µM.
The next assay deals with MAPK12 (human) (UniProt P53778). Kind of assay: KINOMEscan competition binding. The settings on record: compound 10.0 µM.
The next assay addresses MINK1 (human) (UniProt Q8N4C8). Kind of assay: KINOMEscan competition binding. The note with it: compound 10.0 µM.
Another assay deals with PIK3C2B (human) (UniProt O00750). Put plainly: KINOMEscan competition binding. The settings on record: compound 10.0 µM.
The next assay concerns the target PIK3CA (human) (UniProt P42336). Kind of assay: KINOMEscan competition binding. The note with it: compound 10.0 µM.
The subject of assay [2] is PIK3CA (human), P42336 [E545K]. Kind of assay: KINOMEscan competition binding. The note with it: compound 10.0 µM.
For another assay, the target named is PIK3CB (human) (UniProt P42338). Kind of assay: KINOMEscan competition binding. The note with it: compound 10.0 µM.
The next assay addresses PIK3CD (human) (UniProt O00329). Put plainly: KINOMEscan competition binding. The note with it: compound 10.0 µM.
The target in the next assay is PIK3CG (human) (UniProt P48736). Kind of assay: KINOMEscan competition binding. The settings on record: compound 10.0 µM.
Assay [3] concerns the target PIM1 (human) (UniProt P11309). Put plainly: KINOMEscan competition binding. The settings on record: compound 10.0 µM.
Assay [4] has as its target PIM2 (human) (UniProt Q9P1W9). Kind of assay: KINOMEscan competition binding. The settings on record: compound 10.0 µM.
A further assay concerns the target PIM3 (human) (UniProt Q86V86). Kind of assay: KINOMEscan competition binding. The note with it: compound 10.0 µM.
For a further assay, the target named is PLK4 (human) (UniProt O00444). Kind of assay: KINOMEscan competition binding. The settings on record: compound 10.0 µM.
Sequence of PLK4 (human) (O00444 whole entry, looked up): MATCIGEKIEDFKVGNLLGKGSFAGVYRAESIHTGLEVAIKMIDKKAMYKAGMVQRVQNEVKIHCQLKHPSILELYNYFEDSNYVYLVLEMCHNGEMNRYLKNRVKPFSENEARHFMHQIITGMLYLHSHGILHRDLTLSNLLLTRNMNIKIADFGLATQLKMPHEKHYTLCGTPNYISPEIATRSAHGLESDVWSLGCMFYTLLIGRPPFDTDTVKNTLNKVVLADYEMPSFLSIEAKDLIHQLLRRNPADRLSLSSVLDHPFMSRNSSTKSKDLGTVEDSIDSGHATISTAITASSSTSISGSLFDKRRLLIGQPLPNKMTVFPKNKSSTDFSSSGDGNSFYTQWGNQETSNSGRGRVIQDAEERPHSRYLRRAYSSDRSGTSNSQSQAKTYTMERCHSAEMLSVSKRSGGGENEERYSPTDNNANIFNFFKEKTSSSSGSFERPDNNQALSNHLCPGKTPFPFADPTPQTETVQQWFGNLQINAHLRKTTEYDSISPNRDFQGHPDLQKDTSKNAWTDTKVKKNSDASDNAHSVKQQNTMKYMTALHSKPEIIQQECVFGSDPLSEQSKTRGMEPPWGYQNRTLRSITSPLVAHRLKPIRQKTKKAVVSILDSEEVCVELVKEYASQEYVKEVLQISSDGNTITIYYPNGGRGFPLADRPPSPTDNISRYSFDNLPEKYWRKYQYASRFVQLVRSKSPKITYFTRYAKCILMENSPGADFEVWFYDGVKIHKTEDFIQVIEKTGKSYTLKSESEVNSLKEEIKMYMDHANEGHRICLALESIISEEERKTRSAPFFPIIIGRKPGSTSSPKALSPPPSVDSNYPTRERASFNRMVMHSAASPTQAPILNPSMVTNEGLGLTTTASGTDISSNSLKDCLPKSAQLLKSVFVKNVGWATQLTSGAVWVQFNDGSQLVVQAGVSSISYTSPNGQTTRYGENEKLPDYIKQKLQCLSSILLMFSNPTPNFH
The next assay addresses STK17B (human) (UniProt O94768). Kind of assay: KINOMEscan competition binding. The settings on record: compound 10.0 µM.
A further assay concerns the target TAOK1 (human) (UniProt Q7L7X3). Kind of assay: KINOMEscan competition binding. The settings on record: compound 10.0 µM.
For assay [5], the target named is PIM1 (human) (UniProt P11309). Put plainly: SelectScreen, TR FRET.
Sequence of PIM1 (human) (P11309 whole entry, looked up): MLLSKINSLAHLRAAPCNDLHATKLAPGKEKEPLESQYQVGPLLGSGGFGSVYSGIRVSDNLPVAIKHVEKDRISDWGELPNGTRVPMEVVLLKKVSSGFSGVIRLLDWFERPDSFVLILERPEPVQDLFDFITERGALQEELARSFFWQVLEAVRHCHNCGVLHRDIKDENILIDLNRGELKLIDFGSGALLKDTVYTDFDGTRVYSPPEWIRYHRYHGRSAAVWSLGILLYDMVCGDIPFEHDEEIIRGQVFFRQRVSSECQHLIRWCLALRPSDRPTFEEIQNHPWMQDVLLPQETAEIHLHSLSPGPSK
The target of assay [6] is PIM2 (human) (UniProt Q9P1W9). Kind of assay: SelectScreen, TR FRET.
Sequence of PIM2 (human) (Q9P1W9 whole entry, looked up): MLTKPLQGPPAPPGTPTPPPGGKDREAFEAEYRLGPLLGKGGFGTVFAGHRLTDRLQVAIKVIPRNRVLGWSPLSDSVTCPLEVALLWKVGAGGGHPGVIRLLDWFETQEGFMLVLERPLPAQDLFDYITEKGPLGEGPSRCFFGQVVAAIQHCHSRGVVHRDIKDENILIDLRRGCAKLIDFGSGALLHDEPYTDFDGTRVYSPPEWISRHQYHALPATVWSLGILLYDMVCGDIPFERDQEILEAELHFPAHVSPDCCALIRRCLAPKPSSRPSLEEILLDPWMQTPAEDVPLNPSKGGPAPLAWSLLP
The next assay deals with MAP4K4 (human) (UniProt O95819). Put plainly: KINOMEscan competition binding. The settings on record: compound 10.0 µM.
Another assay has as its target PTK2 (human) (UniProt Q05397). Put plainly: KINOMEscan competition binding. The note with it: compound 10.0 µM.
A further assay has as its target STK33 (human) (UniProt Q9BYT3). Put plainly: KINOMEscan competition binding. The note with it: compound 10.0 µM.
Assay [7] has as its target TTK (human) (UniProt P33981). Kind of assay: SelectScreen, TR FRET. A general note: Time-resolved FRET reads energy transfer from a long-lived donor to a nearby acceptor.

Sequence of RPS6KA4 KD2 (human) (O75676 whole entry, looked up): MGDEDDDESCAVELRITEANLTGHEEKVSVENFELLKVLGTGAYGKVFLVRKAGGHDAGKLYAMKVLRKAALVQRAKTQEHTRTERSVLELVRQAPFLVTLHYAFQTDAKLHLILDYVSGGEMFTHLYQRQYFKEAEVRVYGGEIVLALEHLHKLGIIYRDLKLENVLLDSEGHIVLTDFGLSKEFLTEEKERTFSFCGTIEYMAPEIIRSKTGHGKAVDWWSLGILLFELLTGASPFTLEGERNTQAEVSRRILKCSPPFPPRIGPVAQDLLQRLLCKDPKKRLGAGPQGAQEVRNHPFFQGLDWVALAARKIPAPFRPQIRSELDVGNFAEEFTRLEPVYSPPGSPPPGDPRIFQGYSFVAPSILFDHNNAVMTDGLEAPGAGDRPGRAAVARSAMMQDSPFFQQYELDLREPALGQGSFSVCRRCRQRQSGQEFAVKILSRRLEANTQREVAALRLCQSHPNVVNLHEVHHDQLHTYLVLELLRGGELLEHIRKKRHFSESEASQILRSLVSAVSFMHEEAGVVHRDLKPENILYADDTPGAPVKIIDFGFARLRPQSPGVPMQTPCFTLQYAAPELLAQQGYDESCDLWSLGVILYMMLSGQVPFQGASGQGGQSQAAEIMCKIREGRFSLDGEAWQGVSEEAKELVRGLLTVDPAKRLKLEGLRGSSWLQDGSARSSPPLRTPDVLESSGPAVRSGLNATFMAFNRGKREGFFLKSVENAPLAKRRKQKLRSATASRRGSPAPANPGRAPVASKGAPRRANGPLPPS

`CCN(CC)C1CCN(c2ccc(Nc3ncc4c(n3)N3CCCC3C=CN4C)c(OC(C)C)c2)CC1` (centres undefined): the kinase still bound, per cent of control at GAK (human) came to 27%; at MYLK (human), 25%; on PLK1 (human) it was 4.4%; at PLK3 (human), 5.8%; on RAF1 (human), 0%; at RPS6KA2 KD2 (human) it was 32%. For the same molecule, the kinase still bound, per cent of control turned out to be 1.9% at RPS6KA4 KD2 (human) and 7.4% at TTK (human) [1].
Turning to `NS(=O)(=O)c1ccc(-c2ccc(/C=C3\SC(=O)NC3=O)o2)cc1`, the kinase still bound, per cent of control was 34% on AAK1 (human); 30% at BTK (human); 19% at CDK16 (human); 27% on CDK7 (human); 18% on CSNK2A1 (human); 7.9% on CSNK2A2 (human). In addition, the kinase still bound, per cent of control worked out at 6% at DAPK1 (human); 6.4% on DAPK2 (human); 11% on DAPK3 (human); 2.4% on HIPK1 (human); 8.1% at LATS2 (human); 34% at MAP2K3 (human). In addition, the kinase still bound, per cent of control on MAPK12 (human) amounted to 28%; at MINK1 (human) it was 1.8%; at PIK3C2B (human), 18%; on PIK3CA (human) it was 15%; in assay [2], 20%; on PIK3CB (human), 31%. For the same molecule, the kinase still bound, per cent of control was determined as 32% on PIK3CD (human); 3.6% at PIK3CG (human); 4% on PIM1 (human) [3]; 0.9% at PIM2 (human) [4]; 4.9% at PIM3 (human); 21% at PLK4 (human). Further, the kinase still bound, per cent of control turned out to be 9.9% at RPS6KA4 KD2 (human), 9% at STK17B (human) and 9.6% at TAOK1 (human). The results for the IC50 against PIM1 (human) [5] and against PIM2 (human) [6] were 215 nM and 125 nM, respectively.
For `CS(=O)C1=NC(=O)/C(=C/c2ccc(-c3ccc(S(N)(=O)=O)cc3)o2)S1` (centres undefined), the kinase still bound, per cent of control is 17% on BTK (human); 9.3% at CDK16 (human); 29% on CDK7 (human); 15% on CSNK2A1 (human); 21% on CSNK2A2 (human); 2.3% at DAPK1 (human). The kinase still bound, per cent of control at DAPK2 (human) is 3.4%; at DAPK3 (human) it was 8%; at HIPK1 (human), 3.4%; at LATS2 (human), 21%; at MAP2K3 (human), 33%; on MAP4K4 (human), 18%. The kinase still bound, per cent of control stood at 32% on MINK1 (human); 12% on PIK3CA (human); 17% in assay [2]; 31% on PIK3CB (human); 30% on PIK3CD (human); 10% at PIK3CG (human). Further, the kinase still bound, per cent of control on PIM1 (human) [3] stood at 2.4%; at PIM2 (human) [4], 3.3%; at PIM3 (human), 2.8%; on PLK4 (human), 4.7%; at RPS6KA4 KD2 (human) it was 18%; on STK17B (human) it was 5.2%. This molecule returned a kinase still bound, per cent of control on TAOK1 (human) of 12%. In addition, the IC50 against PIM1 (human) [5] turned out to be 293 nM; against PIM2 (human) [6] it was 165 nM.
Turning to `COc1cc(N(C)CCO)ccc1Nc1ncc2c(n1)N(C1CCCC1)CCC(=O)N2C`, the kinase still bound, per cent of control was 2.4% on GAK (human); 7.4% at PLK1 (human); 0% on PLK3 (human); 14% on PLK4 (human); 17% at PTK2 (human); 0% at RAF1 (human). Also, the kinase still bound, per cent of control is 17% at STK33 (human) and 2.2% at TTK (human) [1]. At TTK (human) [1], this molecule displayed a Kd of 157 nM. The same molecule gave an IC50 on TTK (human) [7] of 1370 nM.
